From patent US9012655B2, “Antimicrobial/adjuvant compounds and methods” (Denouamed, Inc., priority 2011, dated 2015)
≈ marks a conversion by molar mass, not a printed value.

What was measured:
E. coli D22 = assay: MIC, NCCLS M7-A6 broth microdilution, E. coli D22; format: cell-based; details: Escherichia coli, D22, 16 to 20 h, 35 degrees Celsius
In short: (§1)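 Broth microdilution per NCCLS M7-A6 in cation-adjusted Mueller-Hinton broth, doubling dilutions, inoculum 5×10^5 CFU/mL, DMSO controls included. Read after 16–20 h at 35 °C in ambient air; MIC is lowest concentration preventing visible growth.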

[1] = system: Staphylococcus epidermidis NRS7; assay: MIC panel of challenge pathogens (CLSI); format: cell-based; details: Staphylococcus epidermidis NRS7; for MIC: read-out: 100% inhibition; for MIC50: read-out: MIC50 (50%); for MIC80: read-out: MIC80 (80%)
Method: (§2) The inocula for each bacterial strain were prepared by picking 5-10 distinct colonies from the culture plates and suspending them in the appropriate broth as per Clinical and Laboratory Standards Institute (CLSI) guidelines M07-A8, M24-A or M11-A7 as appropriate. The inoculum was resuspended by vigorous shaking on a vortex mixer for 15 s. The turbidity was then adjusted to McFarland standard 0.5 ([…]). The inoculum was further diluted in the appropriate media for MIC tests to give a final inoculum in each well of 2-8×10^5 CFU/ml. MICs were tested in the appropriate broth in accordance with the appropriate CLSI guidelines.
(§3) A stock solution of each compound was prepared at a concentration of 1.28 g/L in DMSO. The stock was further diluted in the appropriate media to give a top starting concentration of 128 mg/L in the assay. 100 μL of the appropriate media, as per CLSI guidelines, was dispensed into each well in columns 2-12. 200 μL of the each compound solution (at 256 mg/L) was dispensed into each well in column 1. 100 μL aliquots were pipetted from column 1 wells and dispensed into column 2 with a multichannel pipette (±2% coefficient of variation) thus diluting two-fold. 100 μL samples were then pipetted from column 2 wells and dispensed into column 3. The process was repeated through to column 10. The final 100 μL of diluted drug from column 10 was then discarded. Row 11 acted as a positive control (no compound, but organisms added), Row 12 acted as a negative control (no compound, and no organisms added).
(§4) 100 μL of the appropriate inoculum suspension in the appropriate media, as per CLSI guidelines, was added to the appropriate wells. […] All plates were incubated in the dark under aerobic or anaerobic conditions at 30-37° C. for 24-48 hours, according to the appropriate CLSI guideline. Plates were read visually 24-48 hours post inoculation. Endpoints of 100% inhibition were determined (CLSI interpretation endpoints following visual examination).
(§5) MIC50, MIC80, and 100% inhibition results are reported below in μg/mL in the following Tables, indicating each compound tested against a given species and strain: […]

[2] = system: Staphylococcus aureus NRS383; assay: MIC panel of challenge pathogens (CLSI); format: cell-based; details: Staphylococcus aureus NRS383; for MIC: read-out: 100% inhibition; for MIC50: read-out: MIC50 (50%); for MIC80: read-out: MIC80 (80%)
Method: as §2, §3, §4, §5

[3] = system: Enterococcus faecium ATCC700221; assay: MIC panel of challenge pathogens (CLSI); format: cell-based; details: Enterococcus faecium ATCC700221; for MIC: read-out: 100% inhibition; for MIC50: read-out: MIC50 (50%); for MIC80: read-out: MIC80 (80%)
Method: as §2, §3, §4, §5

[4] = system: Enterococcus faecalis ATCC29212; assay: MIC panel of challenge pathogens (CLSI); format: cell-based; details: Enterococcus faecalis ATCC29212; for MIC: read-out: 100% inhibition; for MIC50: read-out: MIC50 (50%); for MIC80: read-out: MIC80 (80%)
Method: as §2, §3, §4, §5

[5] = system: Staphylococcus aureus EUP MRSA002; assay: MIC panel of challenge pathogens (CLSI); format: cell-based; details: EUPMRSA002, Staphylococcus aureus EUP MRSA002; for MIC: read-out: 100% inhibition; for MIC50: read-out: MIC50 (50%); for MIC80: read-out: MIC80 (80%)
Method: as §2, §3, §4, §5

[6] = system: Staphylococcus aureus NRS1 (ATCC700699); assay: MIC panel of challenge pathogens (CLSI); format: cell-based; details: Staphylococcus aureus NRS1 (ATCC700699); for MIC: read-out: 100% inhibition; for MIC50: read-out: MIC50 (50%); for MIC80: read-out: MIC80 (80%)
Method: as §2, §3, §4, §5

[7] = system: Staphylococcus aureus AUR60 7005; assay: MIC panel of challenge pathogens (CLSI); format: cell-based; details: AUR607005, Staphylococcus aureus AUR60 7005; for MIC: read-out: 100% inhibition; for MIC50: read-out: MIC50 (50%); for MIC80: read-out: MIC80 (80%)
Method: as §2, §3, §4, §5

[8] = system: Staphylococcus aureus AUR131 007035; assay: MIC panel of challenge pathogens (CLSI); format: cell-based; details: AUR131007035, Staphylococcus aureus AUR131 007035; for MIC: read-out: 100% inhibition; for MIC50: read-out: MIC50 (50%); for MIC80: read-out: MIC80 (80%)
Method: as §2, §3, §4, §5

AcpS enzyme = AcpS enzyme (Escherichia coli, UniProt P24224); assay: Measurement of AcpS inhibition ([3H]acetyl-CoA incorporation into apo-ACP); format: biochemical; details: % activity vs blank-subtracted counts
In short: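 Acetyl transfer from [3H]acetyl-CoA (labelled stock mixed with unlabelled acetyl-CoA) onto apo-ACP by E. coli AcpS at RT, started with substrate; aliquots TCA-precipitated at time points up to 60 min. Pellet radioactivity by scintillation; results as % activity of blank-subtracted substrate counts.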

[9] = system: Methicillin-Resistant Staph. aureus (MRSA); assay: MIC, NCCLS M7-A6 broth microdilution, MRSA; format: cell-based; details: Staphylococcus aureus, MRSA, 16 to 20 h, 35 degrees Celsius
In short: as §1

AcpS enzyme, sequence (P24224 whole entry): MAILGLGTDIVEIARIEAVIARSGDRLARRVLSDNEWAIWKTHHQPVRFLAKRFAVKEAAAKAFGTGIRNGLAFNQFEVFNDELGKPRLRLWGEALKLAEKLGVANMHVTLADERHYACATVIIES

SMILES | MIC [1] [µg/mL] | MIC50 [1] [µg/mL] | MIC80 [1] [µg/mL] | MIC [2] [µg/mL] | MIC50 [2] [µg/mL] | MIC80 [2] [µg/mL] | MIC [3] [µg/mL] | MIC50 [3] [µg/mL] | MIC80 [3] [µg/mL] | MIC [4] [µg/mL] | MIC50 [4] [µg/mL] | MIC80 [4] [µg/mL] | MIC [5] [µg/mL] | MIC50 [5] [µg/mL] | MIC80 [5] [µg/mL] | MIC [6] [µg/mL] | MIC50 [6] [µg/mL] | MIC80 [6] [µg/mL] | MIC [7] [µg/mL] | MIC50 [7] [µg/mL] | other results
CC(C)c1cc(Cl)ccc1-c1cc(-c2nnn[nH]2)sc1-c1ccc(Cl)cc1C(C)C [DNM0548, 5-(4,5-Bis(4-chloro-2-iso-propylphenyl)thiophen-2-yl)-1H-tetrazole] | 0.5 (≈ 1.09 µM) | 0.5 (≈ 1.09 µM) | 0.5 (≈ 1.09 µM) | ≤ 0.25 | ≤ 0.25 | ≤ 0.25 | ≤ 0.25 | ≤ 0.25 | ≤ 0.25 | 0.25 (≈ 0.547 µM) | 0.25 (≈ 0.547 µM) | 0.25 (≈ 0.547 µM) | 0.5 (≈ 1.09 µM) | 0.5 (≈ 1.09 µM) | 0.5 (≈ 1.09 µM) | ≤ 0.25 | ≤ 0.25 | ≤ 0.25 | 0.5 (≈ 1.09 µM) | 0.5 (≈ 1.09 µM) | MIC (E. coli D22): 60 µM (≈ 27.4 µg/mL); MIC80 [7]: 0.5 µg/mL (≈ 1.09 µM); MIC [8]: 0.5 µg/mL (≈ 1.09 µM); MIC50 [8]: 0.5 µg/mL (≈ 1.09 µM); MIC80 [8]: 0.5 µg/mL (≈ 1.09 µM); activity at 50 µM (AcpS enzyme; test compound 50 uM): 3.1%; remaining activity at 500 µM (AcpS enzyme; test compound 500 uM): 0.1%; MIC [9]: 4 µM (≈ 1.83 µg/mL)
Clc1ccc(Cc2sc(-c3nnn[nH]3)cc2-c2cccc(CC3CCCC3)c2)cc1 [DNM0610, 5-(5-(4-Chlorobenzyl)-4-(3-(cyclopentylmethyl)phenyl)thiophen-2-yl)-1H-tetrazole] | 2 (≈ 4.6 µM) | 1 (≈ 2.3 µM) | 1 (≈ 2.3 µM) | 0.5 (≈ 1.15 µM) | 0.5 (≈ 1.15 µM) | 0.5 (≈ 1.15 µM) | 0.5 (≈ 1.15 µM) | 0.5 (≈ 1.15 µM) | 0.5 (≈ 1.15 µM) | 1 (≈ 2.3 µM) | 1 (≈ 2.3 µM) | 1 (≈ 2.3 µM) | 0.5 (≈ 1.15 µM) | 0.5 (≈ 1.15 µM) | 0.5 (≈ 1.15 µM) | ≤ 0.25 | ≤ 0.25 | ≤ 0.25 | 0.5 (≈ 1.15 µM) | 0.5 (≈ 1.15 µM) | MIC80 [7]: 0.5 µg/mL (≈ 1.15 µM); MIC [8]: 0.5 µg/mL (≈ 1.15 µM); MIC50 [8]: 0.5 µg/mL (≈ 1.15 µM); MIC80 [8]: 0.5 µg/mL (≈ 1.15 µM)
